{"source": "the supplement of paper PMC10307832", "assay_in_all_cases": "relative viability (nuclei count vs DMSO), 5 days (fraction); higher = more cells survive", "key": {"LCLC-103H": {"system": "LCLC-103H", "how_it_was_run": "(§1)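 Lung cancer cell lines in 1536-well plates got either a single drug or a fixed anchor-drug dose together with five library-drug doses (not always all listed) in √10 steps, by pin tool, on the day after seeding. Nuclei were counted after 5 days, and relative viability is the treated-to-vehicle ratio of nuclei counts. Values are medians of duplicate plates.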"}, "HCC-827": {"system": "HCC-827", "how_it_was_run": "as §1"}, "SK-LU-1": {"system": "SK-LU-1", "how_it_was_run": "as §1"}, "HCC-44": {"system": "HCC-44", "how_it_was_run": "as §1"}, "NCI-H2087": {"system": "NCI-H2087", "how_it_was_run": "as §1"}, "NCI-H1395": {"system": "NCI-H1395", "how_it_was_run": "as §1"}, "LXF-289": {"system": "LXF-289", "how_it_was_run": "as §1"}, "NCI-H1944": {"system": "NCI-H1944", "how_it_was_run": "as §1"}, "NCI-H322M": {"system": "NCI-H322M", "how_it_was_run": "as §1"}, "NCI-H647": {"system": "NCI-H647", "how_it_was_run": "as §1"}, "CAL-12T": {"system": "CAL-12T", "how_it_was_run": "as §1"}}, "data": [{"compound": "CC1(C)CCC(c2ccc(Cl)cc2)=C(CN2CCN(c3ccc(C(=O)NS(=O)(=O)c4ccc(N[C@H](CCN5CCOCC5)CSc5ccccc5)c(S(=O)(=O)C(F)(F)F)c4)cc3)CC2)C1", "note": "[Navitoclax] + Cc1nc(NC(=O)N2CCC[C@H]2C(N)=O)sc1-c1ccnc(C(C)(C)C(F)(F)F)c1 [Alpelisib] (partner 2 µM)", "values": [{"measurement": "relative viability", "setting": "LCLC-103H; first compound 0.005 µM", "value": 0.948}, {"measurement": "relative viability", "setting": "LCLC-103H; first compound 0.01581 µM", "value": 1.13}, {"measurement": "relative viability", "setting": "LCLC-103H; first compound 0.05 µM", "value": 0.97}, {"measurement": "relative viability", "setting": "LCLC-103H; first compound 0.1581 µM", "value": 0.919}, {"measurement": "relative viability", "setting": "LCLC-103H; first compound 0.5 µM", "value": 0.963}, {"measurement": "relative viability", "setting": "HCC-827; first compound 0.005 µM", "value": 1.07}, {"measurement": "relative viability", "setting": "HCC-827; first compound 0.01581 µM", "value": 1.1}, {"measurement": "relative viability", "setting": "HCC-827; first compound 0.05 µM", "value": 0.766}, {"measurement": "relative viability", "setting": "HCC-827; first compound 0.1581 µM", "value": 1.02}, {"measurement": "relative viability", "setting": "HCC-827; first compound 0.5 µM", "value": 1.01}, {"measurement": "relative viability", "setting": "SK-LU-1; first compound 0.005 µM", "value": 0.979}, {"measurement": "relative viability", "setting": "SK-LU-1; first compound 0.01581 µM", "value": 1.12}, {"measurement": "relative viability", "setting": "SK-LU-1; first compound 0.05 µM", "value": 1.23}, {"measurement": "relative viability", "setting": "SK-LU-1; first compound 0.1581 µM", "value": 0.906}, {"measurement": "relative viability", "setting": "SK-LU-1; first compound 0.5 µM", "value": 0.867}, {"measurement": "relative viability", "setting": "HCC-44; first compound 0.005 µM", "value": 0.736}, {"measurement": "relative viability", "setting": "HCC-44; first compound 0.01581 µM", "value": 0.805}, {"measurement": "relative viability", "setting": "HCC-44; first compound 0.05 µM", "value": 0.849}, {"measurement": "relative viability", "setting": "HCC-44; first compound 0.1581 µM", "value": 0.795}, {"measurement": "relative viability", "setting": "HCC-44; first compound 0.5 µM", "value": 0.694}, {"measurement": "relative viability", "setting": "NCI-H2087; first compound 0.005 µM", "value": 1.25}, {"measurement": "relative viability", "setting": "NCI-H2087; first compound 0.01581 µM", "value": 1.17}, {"measurement": "relative viability", "setting": "NCI-H2087; first compound 0.05 µM", "value": 1.03}, {"measurement": "relative viability", "setting": "NCI-H2087; first compound 0.1581 µM", "value": 1.05}, {"measurement": "relative viability", "setting": "NCI-H2087; first compound 0.5 µM", "value": 1.08}, {"measurement": "relative viability", "setting": "NCI-H1395; first compound 0.005 µM", "value": 1.05}, {"measurement": "relative viability", "setting": "NCI-H1395; first compound 0.01581 µM", "value": 1.26}, {"measurement": "relative viability", "setting": "NCI-H1395; first compound 0.05 µM", "value": 1.2}, {"measurement": "relative viability", "setting": "NCI-H1395; first compound 0.1581 µM", "value": 1.19}, {"measurement": "relative viability", "setting": "NCI-H1395; first compound 0.5 µM", "value": 1.12}, {"measurement": "relative viability", "setting": "LXF-289; first compound 0.005 µM", "value": 1.02}, {"measurement": "relative viability", "setting": "LXF-289; first compound 0.01581 µM", "value": 1.03}, {"measurement": "relative viability", "setting": "LXF-289; first compound 0.05 µM", "value": 0.921}, {"measurement": "relative viability", "setting": "LXF-289; first compound 0.1581 µM", "value": 1.02}, {"measurement": "relative viability", "setting": "LXF-289; first compound 0.5 µM", "value": 1.08}, {"measurement": "relative viability", "setting": "NCI-H1944; first compound 0.005 µM", "value": 0.832}, {"measurement": "relative viability", "setting": "NCI-H1944; first compound 0.01581 µM", "value": 0.863}, {"measurement": "relative viability", "setting": "NCI-H1944; first compound 0.05 µM", "value": 0.786}, {"measurement": "relative viability", "setting": "NCI-H1944; first compound 0.1581 µM", "value": 0.836}, {"measurement": "relative viability", "setting": "NCI-H1944; first compound 0.5 µM", "value": 0.82}, {"measurement": "relative viability", "setting": "NCI-H322M; first compound 0.005 µM", "value": 0.644}, {"measurement": "relative viability", "setting": "NCI-H322M; first compound 0.01581 µM", "value": 0.772}, {"measurement": "relative viability", "setting": "NCI-H322M; first compound 0.05 µM", "value": 0.931}, {"measurement": "relative viability", "setting": "NCI-H322M; first compound 0.1581 µM", "value": 0.791}, {"measurement": "relative viability", "setting": "NCI-H322M; first compound 0.5 µM", "value": 0.591}, {"measurement": "relative viability", "setting": "NCI-H647; first compound 0.005 µM", "value": 1.04}, {"measurement": "relative viability", "setting": "NCI-H647; first compound 0.01581 µM", "value": 1.35}, {"measurement": "relative viability", "setting": "NCI-H647; first compound 0.05 µM", "value": 1.48}, {"measurement": "relative viability", "setting": "NCI-H647; first compound 0.1581 µM", "value": 1.14}, {"measurement": "relative viability", "setting": "NCI-H647; first compound 0.5 µM", "value": 0.75}, {"measurement": "relative viability", "setting": "CAL-12T; first compound 0.005 µM", "value": 1.08}, {"measurement": "relative viability", "setting": "CAL-12T; first compound 0.01581 µM", "value": 1.28}, {"measurement": "relative viability", "setting": "CAL-12T; first compound 0.05 µM", "value": 1.31}, {"measurement": "relative viability", "setting": "CAL-12T; first compound 0.1581 µM", "value": 1.25}]}]}
